The text below walks through data of ChEMBL document CHEMBL5608211, “Antibody-drug conjugates for targeted cancer therapy: Recent advances in potential payloads” (Eur J Med Chem, 2024).

Broadly, the GI50 is the concentration giving 50% growth inhibition. Read a low GI50 as more potent growth inhibition. One may read the IC50 as the midpoint of a concentration-inhibition curve. By Kd is commonly meant the constant that tells how readily two partners part at equilibrium. For orientation: EC50 means the concentration at which the effect is half-maximal.

Starred links: 1 amine or outer side, 2 acyl side, 3 side chain; linkers in the order of their positions; H or OH if unused. Positions of bridges follow the written chain, without caps; N, C: chain ends. Non-standard residues stand in square brackets, D forms with d. Residues, ends and D or L forms follow the SMILES beside them. *: point of attachment. X7 = C[C@H]([C@H](N[*:3])C(=O)C[C@@H](Cc1c([*:2])[nH]c2cc(O)ccc12)C(=O)[*:1])[C@@H](O)CO; Dolaproine = CO[C@@H]([C@@H]1CCCN1)[C@@H](C)C(=O)O; X10 = CC(C)[C@@H](C(=O)[*:2])N(C)CCCCN(C)[*:1]; X1 = O=C([C@]1(N[*:1])C[C@@H]1c1ccccc1)[*:2]; Dil = CC[C@H](C)[C@H](NC)[C@@H](CC(=O)O)OC; X3 = CCOP(=O)(OCC)[C@@H](N[*:1])C(=O)[*:2]; Pro(4R-NH2) = N[C@H]1CN[C@H](C(=O)O)C1; X9 = c1ccc(C[C@H](N*)c2nn[nH]n2)cc1; NMe2Val = CC(C)[C@@H](C(=O)*)N(C)C; X8 = CCOP(=O)(O)[C@H](Cc1ccccc1)N*; X6 = C[C@@H](N*)[C@@H](O)c1ccccc1; NMeV = CN[C@H](C(=O)O)C(C)C; X5 = c1ccc(COC2CON(*)C2)cc1; X2 = c1ccc2c(c1)CON(*)C2; Boc = CC(C)(C)OC(=O)*; X4 = C1=CC2CCC1ON2*; NHOH = ON*

The subject of one assay is MOLM-13. Put plainly: Growth inhibition of human MOLM-13 cells incubated for 5 days by PrestoBlue reagent assay. The conditions noted are these: MOLM-13, 120 h, time 5 day. The assay is classed as functional.
For the next assay, the system named is CCRF-CEM. Put plainly: Cytotoxicity against human CCRF-CEM cells. It is filed as functional, cell-based.
A further assay has as its target Tubulin. Kind of assay: Displacement of fluorescent Maytansine probe from tubulin (unknown origin) assessed as dissociation constant by competitive binding based fluorescence anisotropy. The assay is classed as protein-complex assay, Homo sapiens. (In general: In fluorescence polarisation assays a small probe gives low polarisation when free and higher when bound to something large.)

Another assay deals with A2780. Put plainly: Cytotoxicity against human A2780 cells assessed as inhibition of cell growth incubated for 72 hrs by MTT assay. It is filed as functional, cell-based. As to conditions: A2780, 72 h.
A further assay has as its system KARPAS-299. Put plainly: Cytotoxicity against human KARPAS-299 cells incubated for 96 hrs by Alamar blue assay. It is filed as functional, cell-based. The conditions noted are these: KARPAS-299, 96 h. For orientation: Alamar Blue is a resazurin reagent that responds to reducing activity.
Another assay relates to A2058. Put plainly: Cytotoxicity against human A2058 cells assessed as inhibition of cell growth incubated for 96 hrs by CellTiter-Glo luminescent assay. As to conditions: A2058, 96 h. The assay is classed as functional, cell-based.
Assay [1] is described as follows: Inhibition of RNA polymerase II phosphorylation in human HeLa cells by Western blot analysis. It is filed as cell-based. (In western blotting, separated proteins are transferred to a membrane and probed.)
Assay [2] concerns H3396. Put plainly: Cytotoxicity against human H3396 cells assessed as inhibition of cell growth incubated for 96 hrs by Alamar blue assay. The assay is classed as functional, cell-based. As to conditions: H3396, 96 h.
The test system of another assay is HCT-116. Put plainly: Cytotoxicity against human HCT-116 cells incubated for 96 hrs by resazurin dye based fluorescence spectrometric assay. It is filed as functional, cell-based. As to conditions: HCT-116, 96 h.
Assay [3] has as its system H3396. Kind of assay: Cytotoxicity against human H3396 cells incubated for 96 hrs by resazurin dye based fluorescence spectrometric assay. The assay is classed as functional, cell-based. As to conditions: H3396, 96 h.
The next assay concerns 786-0. Kind of assay: Antiproliferative activity against human 786-0 cells incubated for 48 to 96 hrs by MTT assay. The assay is classed as functional, cell-based.
Assay [4] deals with HT-29. Kind of assay: Antiproliferative activity against human HT-29 cells incubated for 48 to 96 hrs by MTT assay. It is filed as functional, cell-based.
A further assay has as its system SK-BR-3. Put plainly: Growth inhibition of human SK-BR-3 cells incubated for 72 hrs by CellTiter-Glo luminescent assay. The assay is classed as functional.
Assay [5] is described as follows: Cytotoxicity against human L540cy cells assessed as reduction in cell growth incubated for 4 days by CellTiter-Glo luminescent assay. The assay is classed as functional, cell-based. As to conditions: 96 h.
The test system of assay [6] is HT-29. Put plainly: Antiproliferative activity against human HT-29 cells assessed as inhibition of cell growth incubated for 96 hrs by SRB assay. It is filed as functional, cell-based. As to conditions: HT-29, 96 h.

For `CC[C@H](C)[C@@H]([C@@H](CC(=O)N1C[C@@H](N)C[C@H]1[C@H](OC)[C@@H](C)C(=O)N[C@@H](Cc1ccccc1)C(=O)OC)OC)N(C)C(=O)[C@@H](NC(=O)[C@H](C(C)C)N(C)C)[C@H](C)N=[N+]=[N-]`, it took 57 pM to inhibit growth in the assay with MOLM-13 by half (GI50).
`COc1ccc(C[C@H]2NC(=O)/C=C/C[C@@H]([C@H](C)[C@H]3O[C@@H]3c3ccc(F)cc3)OC(=O)[C@H](CC(C)C)OC(=O)C(C)(C)CNC2=O)cc1Cl` came in with an IC50 in the assay on CCRF-CEM of 33 pM.
`COc1cc2cc(c1Cl)N(C)C(=O)C[C@H](OC(=O)c1ccccc1)[C@@]1(C)O[C@H]1[C@H](C)[C@@H]1C[C@@](O)(NC(=O)O1)[C@H](OC)/C=C/C=C(\C)C2`: the Kd on Tubulin came out at 51000 pM. The IC50 in the assay with A2780 came out at 110 pM.
Take `CC[C@H](C)[C@@H]([C@@H](CC(=O)N1CCC[C@H]1[C@H](OC)[C@@H](C)C(=O)N[C@H](Cc1ccccc1)C(=O)OC)OC)N(C)C(=O)[C@@H](NC(=O)c1ccc(N)cc1)C(C)C`: inhibition in the assay on KARPAS-299 was half-maximal at 120 pM (IC50).
In the case of `CC[C@H](C)[C@@H]([C@@H](CC(=O)N1CCC[C@H]1[C@H](OC)[C@@H](C)C(=O)N[C@@H](Cc1ccccc1)C(=O)O)OC)N(C)C(=O)[C@@H](NC(=O)[C@H](C(C)C)N(C)CCCCN(C)C(=O)OC(C)(C)C)C(C)C` (Boc-[X10]V[Dil][Dolaproine]F-OH), in the assay on A2058, the IC50 came out at 1000 pM.
For the compound `CC[C@H](C)[C@@H]1NC(=O)CNC(=O)[C@H]2CC(=O)[C@H]([C@@H](C)[C@@H](O)CO)NC(=O)[C@@H]3C[C@@H](N)CN3C(=O)[C@H](CC(N)=O)NC(=O)[C@H](CSc3[nH]c4cc(O)ccc4c3C2)NC(=O)CNC1=O` (GIGCN[Pro(4R-NH2)]; linker N-4-C via X7), the IC50 in assay [1] amounted to 550000 pM.
For the compound `CC[C@H](C)[C@@H]([C@@H](CC(=O)N1CCC[C@H]1[C@H](OC)[C@@H](C)C(=O)N[C@H](C)[C@@H](O)c1ccccc1)OC)N(C)C(=O)[C@@H](NC(=O)[C@@H](NC)C(C)C)C(C)C` (H-[NMeV]V[Dil][Dolaproine]-X6), the IC50 in the assay with H3396 [2] turned out to be 100 pM.
`CCOP(=O)(O)[C@H](Cc1ccccc1)NC(=O)[C@H](C)[C@@H](OC)[C@@H]1CCCN1C(=O)C[C@@H](OC)[C@H]([C@@H](C)CC)N(C)C(=O)[C@@H](NC(=O)[C@@H](NC)C(C)C)C(C)C` (H-[NMeV]V[Dil][Dolaproine]-X8) returned a concentration for half-maximal inhibition (IC50) with HCT-116 of 90 pM.
In the case of `CC[C@H](C)[C@@H]([C@@H](CC(=O)N1CCC[C@H]1[C@H](OC)[C@@H](C)C(=O)N[C@@H](Cc1ccccc1)c1nn[nH]n1)OC)N(C)C(=O)[C@@H](NC(=O)[C@@H](NC)C(C)C)C(C)C` (H-[NMeV]V[Dil][Dolaproine]-X9), the IC50 in the assay on H3396 [3] came out at 6000 pM.
`CC[C@H](C)[C@@H]([C@@H](CC(=O)N1CCC[C@H]1[C@H](OC)[C@@H](C)C(=O)N[C@@H](Cc1ccccc1)C(=O)N1CC(OCc2ccccc2)CO1)OC)N(C)C(=O)[C@@H](NC(=O)[C@@H](NC)C(C)C)C(C)C` (stereo not given in full) (H-[NMeV]V[Dil][Dolaproine]F-X5): the IC50 with 786-0 and in the assay with HT-29 [4] was 500 pM each time.
Consider `CC[C@H](C)[C@@H]([C@@H](CC(=O)N1CCC[C@H]1[C@H](OC)[C@@H](C)C(=O)N[C@@]1(C(=O)N2Cc3ccccc3CO2)C[C@@H]1c1ccccc1)OC)N(C)C(=O)[C@@H](NC(=O)[C@@H](NC)C(C)C)C(C)C` (H-[NMeV]V[Dil][Dolaproine][X1]-X2), for which the IC50 in the assay with 786-0 and in the assay on HT-29 [4] was 500 pM each time.
As for `CCOP(=O)(OCC)[C@@H](NC(=O)[C@H](C)[C@@H](OC)[C@@H]1CCCN1C(=O)C[C@@H](OC)[C@H]([C@@H](C)CC)N(C)C(=O)[C@@H](NC(=O)[C@@H](NC)C(C)C)C(C)C)C(=O)N1OC2C=CC1CC2` (stereo not given in full) (H-[NMeV]V[Dil][Dolaproine][X3]-X4), the concentration for half-maximal inhibition (IC50) in the assay on 786-0 and in the assay on HT-29 [4] was 500 pM each time.
`CC[C@H](C)[C@@H]([C@@H](CC(=O)N1CCC[C@H]1[C@H](OC)[C@@H](C)C(=O)N[C@@H](CC(C)C)C(=O)NO)OC)N(C)C(=O)[C@@H](NC(=O)[C@H](C(C)C)N(C)C)C(C)C` (NMe2Val-V[Dil][Dolaproine]L-{NHOH}) showed a GI50 in the assay with SK-BR-3 of 100 pM.
Take `O=C(/C=C/c1cccnc1)NCCCCC1CCN(C(=O)c2ccccc2)CC1` [DAPORINAD]: the EC50 in assay [5] amounted to 6700 pM.
On to `CC[C@H](C)[C@@H]([C@@H](CC(=O)N1CCC[C@H]1[C@H](OC)[C@@H](C)C(=O)N[C@@H](Cc1ccccc1)c1nccs1)OC)N(C)C(=O)[C@@H](NC(=O)[C@H](C(C)C)N(C)C)C(C)C` [DOLASTATIN-10], for which the IC50 in the assay on HT-29 [6] is 18 pM.
As for `COc1cc2cc(c1Cl)N(C)C(=O)C[C@H](OC(=O)[C@H](C)N(C)C(C)=O)[C@]1(C)O[C@H]1[C@H](C)[C@@H]1C[C@@](O)(NC(=O)O1)[C@H](OC)/C=C/C=C(\C)C2` [MAYTANSINE], the Kd on Tubulin amounted to 14000 pM.
